# Experimental data: US9617271B2, “Triazolo compounds” (Hoffmann-La Roche Inc., priority 2012, dated 2017)
# Target: human PDE10A (Homo sapiens (Human), UniProt Q9Y233)
# Test: human PDE10A full length assay ([3H]-cGMP SPA)
# Format: biochemical
# Conditions: human PDE10A full length enzyme, 50 nM cGMP + 50 nM [3H]-cGMP, 20 minutes at room temperature; read-out: PDE10A inhibition IC50
# Experimental: The human PDE10A full length assay was performed in 96-well micro titer plates. The reaction mixture of 50 μl contained 20 mM HEPES pH=7.5/10 mM MgCl2/0.05 mg/ml BSA (Sigma cat. #A-7906), 50 nM cGMP (Sigma, cat. #G6129) and 50 nM [3H]-cGMP (GE Healthcare, cat. #TRK392 S.A. 13.2 Ci/mmol), 3.75 ng/well PDE10A enzyme (Enzo Life Science, Lausen, Switzerland cat #SE-534) with or without a specific test compound. A range of concentrations of the potential inhibitor was used to generate data for calculating the concentration of inhibitor resulting in 50% of the effect (e.g. IC50, the concentration of the competitor inhibiting PDE10A activity by 50%). Non-specific activity was tested without the enzyme. The reaction was initiated by the addition of the substrate solution (cGMP and [3H]-cGMP) and allowed to progress for 20 minutes at room temperature. The reaction was terminated by adding 25 μl of YSi-SPA scintillation beads (GE Healthcare, cat. #RPNQ0150) in 18 mM zinc sulphate solution (stop reagent). After 1 h under shaking, the plate was centrifuged one minute at 170 g to allow beads to settle. Afterwards, radioactive counts were measured on a Perkin Elmer TopCount Scintillation plate reader.
# human PDE10A, sequence (Q9Y233 other isoform, or with tags, fused parts or gaps): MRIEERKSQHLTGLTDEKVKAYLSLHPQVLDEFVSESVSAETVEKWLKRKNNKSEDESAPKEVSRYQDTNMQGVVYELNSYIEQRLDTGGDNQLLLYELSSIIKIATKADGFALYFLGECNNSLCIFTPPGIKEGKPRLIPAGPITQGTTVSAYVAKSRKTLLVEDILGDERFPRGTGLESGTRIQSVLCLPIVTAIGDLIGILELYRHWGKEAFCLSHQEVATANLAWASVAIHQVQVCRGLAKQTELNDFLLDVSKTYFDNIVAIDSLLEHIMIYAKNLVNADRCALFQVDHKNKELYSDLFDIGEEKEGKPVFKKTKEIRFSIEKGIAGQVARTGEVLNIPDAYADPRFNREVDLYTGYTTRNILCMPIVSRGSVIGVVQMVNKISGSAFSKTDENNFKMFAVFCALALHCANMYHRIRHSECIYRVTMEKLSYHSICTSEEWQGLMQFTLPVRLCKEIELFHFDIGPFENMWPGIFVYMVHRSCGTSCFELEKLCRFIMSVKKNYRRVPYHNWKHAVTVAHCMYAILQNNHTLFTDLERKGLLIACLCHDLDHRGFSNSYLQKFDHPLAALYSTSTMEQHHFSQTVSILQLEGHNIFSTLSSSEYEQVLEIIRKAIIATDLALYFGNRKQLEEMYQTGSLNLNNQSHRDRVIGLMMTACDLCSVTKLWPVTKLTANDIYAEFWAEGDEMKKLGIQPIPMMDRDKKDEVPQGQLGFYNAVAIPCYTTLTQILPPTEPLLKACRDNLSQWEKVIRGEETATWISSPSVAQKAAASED
row,Molecule,IC50
1,"N-Ethyl-N,6,7-trimethyl-2-(2-(1-methyl-3-(pyrrolidin-1-yl)-1H-1,2,4-triazol-5-yl)ethyl)imidazo[1,2-f][1,2,4]triazin-4-amine [Example 34]",5 nM
2,"COc1nc(CCc2nc(N3CCCC3)nn2C)nn2c(C)c(C)nc12 [Example 13, 4-Methoxy-6,7-dimethyl-2-(2-(1-methyl-3-(pyrrolidin-1-yl)-1H-1,2,4-triazol-5-yl)ethyl)imidazo[1,2-f][1,2,4]triazine]",2 nM

# More lines, now with the values ahead:
row,IC50,Molecule
1,4 nM,"Cc1nc2c(Cl)nc(CCc3nc(N4CCCC4)nn3C)nn2c1C [Example 15, 4-Chloro-6,7-dimethyl-2-(2-(1-methyl-3-(pyrrolidin-1-yl)-1H-1,2,4-triazol-5-yl)ethyl)imidazo[1,2-f][1,2,4]triazine]"
2,19.8 nM,"Cc1nc2cc(C3CCCCC3)c(CCc3nc(N4CCCC4)nn3C)nn2c1C [Example 58, 7-Cyclohexyl-2,3-dimethyl-6-(2-(1-methyl-3-(pyrrolidin-1-yl)-1H-1,2,4-triazol-5-yl)ethyl)imidazo[1,2-b]pyridazine]"
3,1 nM,"Cc1nc2c(C(C)C)cc(C#Cc3nc(N4CCCC4)nn3C)nn2c1C [Example 44, 8-Isopropyl-2,3-dimethyl-6-((1-methyl-3-(pyrrolidin-1-yl)-1H-1,2,4-triazol-5-yl)ethynyl)imidazo[1,2-b]pyridazine]"
